Measurements published in paper PMC4878744, “Structure, Regulation, and Inhibition of the Quorum-Sensing Signal Integrator LuxO” (PLoS Biology, 2016).

What was measured:
[1] = molecular target: T1, V. vulnificus LuxO-C (Vibrio vulnificus, UniProt Q8CWJ5); experiment: NADH-coupled ATPase assay, fit to one-inhibitor-per-oligomer model; type: biochemical; design: catalytic (C) domain only, R and D domains absent; C-terminal His6 tag; expressed in E. coli BL21(DE3); hexamer 173 kDa theoretical; conditions: competitive with ATP; 100 μM LuxO-C, 2 mM ATP, pH 7.4, 23°C, 4% DMSO; K is affinity relative to ATP (dimensionless ratio)
[2] = molecular target: T1, V. vulnificus LuxO-C; conditions: pH 7.4, 23°C; turnover number versus LuxO-C concentration only in Figure 4A

T1 sequence (Q8CWJ5 132-378): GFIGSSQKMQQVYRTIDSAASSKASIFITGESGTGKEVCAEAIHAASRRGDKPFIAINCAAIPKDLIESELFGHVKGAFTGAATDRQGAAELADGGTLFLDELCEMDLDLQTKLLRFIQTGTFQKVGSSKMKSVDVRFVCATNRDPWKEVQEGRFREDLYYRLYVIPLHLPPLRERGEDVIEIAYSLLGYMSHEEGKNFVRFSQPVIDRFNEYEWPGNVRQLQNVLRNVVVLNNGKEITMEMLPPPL

AzaU was tested, and the “K (= Kd^ATP / Kd^AzaU)” value [1] was 34 ± 2.

`Nc1ncnc2c1ncn2[C@@H]1O[C@H](COP(=O)(O)OP(=O)(O)OP(=O)(O)O)[C@@H](O)[C@H]1O` [ATP] was tested, and the “NADH-coupled ATPase assay” value [2] was “V. vulnificus LuxO-C”.
